Source: patent US12256759B2, “Methods for the reduction of methane production in ruminants” (Loam Bio Pty Ltd, priority 2021, dated 2025)

Tests used:
[1] = tested on: methane production; details: among antimethanogenic compounds found in A. taxiformis; cited from earlier work
[2] = tested on: Methanobrevibacter smithii; details: 100 ul chloroform, positive control
[3] = target: T1, methyl-coenzyme M reductase (MCR) (Methanothermobacter marburgensis, UniProt P11558); details: prevents the final catalysis step of methanogenesis; cited from earlier work
T1 sequence (P11558 1-550): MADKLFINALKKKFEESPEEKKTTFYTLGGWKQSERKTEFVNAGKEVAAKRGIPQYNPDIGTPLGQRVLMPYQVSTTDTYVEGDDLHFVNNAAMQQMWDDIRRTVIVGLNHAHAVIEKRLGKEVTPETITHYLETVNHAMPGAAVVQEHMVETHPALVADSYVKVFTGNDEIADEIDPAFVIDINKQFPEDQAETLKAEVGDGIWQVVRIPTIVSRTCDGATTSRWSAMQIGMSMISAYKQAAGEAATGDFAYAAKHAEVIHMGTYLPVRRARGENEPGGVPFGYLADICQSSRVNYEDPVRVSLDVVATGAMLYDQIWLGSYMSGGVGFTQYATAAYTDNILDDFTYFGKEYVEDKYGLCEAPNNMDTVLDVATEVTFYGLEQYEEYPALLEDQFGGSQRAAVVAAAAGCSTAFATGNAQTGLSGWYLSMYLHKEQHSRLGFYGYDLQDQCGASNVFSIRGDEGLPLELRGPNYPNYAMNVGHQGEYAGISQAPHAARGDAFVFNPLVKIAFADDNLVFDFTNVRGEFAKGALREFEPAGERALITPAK
T1 sequence (P11560 1-443 partner): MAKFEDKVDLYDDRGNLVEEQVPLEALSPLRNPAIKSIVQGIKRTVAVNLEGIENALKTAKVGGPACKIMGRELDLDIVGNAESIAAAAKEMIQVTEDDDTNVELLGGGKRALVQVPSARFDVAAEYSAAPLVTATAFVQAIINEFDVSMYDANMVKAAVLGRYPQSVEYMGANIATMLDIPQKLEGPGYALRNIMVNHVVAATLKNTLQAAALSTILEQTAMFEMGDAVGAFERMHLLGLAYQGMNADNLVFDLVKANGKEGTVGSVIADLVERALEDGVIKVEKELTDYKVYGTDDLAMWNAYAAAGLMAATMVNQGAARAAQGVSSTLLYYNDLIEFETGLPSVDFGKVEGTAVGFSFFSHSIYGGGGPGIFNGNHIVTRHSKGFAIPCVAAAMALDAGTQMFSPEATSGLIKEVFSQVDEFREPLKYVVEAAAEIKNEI
T1 sequence (P11562 1-249 partner): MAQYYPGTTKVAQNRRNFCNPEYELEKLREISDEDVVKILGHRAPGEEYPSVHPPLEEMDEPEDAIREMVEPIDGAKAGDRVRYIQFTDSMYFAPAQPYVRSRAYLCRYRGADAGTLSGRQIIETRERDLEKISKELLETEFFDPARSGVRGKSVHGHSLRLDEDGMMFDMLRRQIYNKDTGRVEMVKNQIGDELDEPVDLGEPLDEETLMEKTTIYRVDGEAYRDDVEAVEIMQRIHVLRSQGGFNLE

SMILES	activity at inhibiting methane production [1]	inhibition of methane production [2]	mode of action on methyl-coenzyme M reductase (MCR) [3]
ClC(Br)Br [dibromochloromethane]	highest activity at inhibiting methane production		
ClC(Cl)Cl [chloroform]		dramatic inhibition in methane production	
BrC(Br)Br [bromoform]	highest activity at inhibiting methane production		competitive inhibitor or analog
